Laboratory results reported in ChEMBL document CHEMBL5532665 (J Med Chem, 2024).
Calls of active or inactive are those of the source. The rule behind the calls is not given here.

Experiments:
[1] = target: T1, Mu-type opioid receptor (Homo sapiens, UniProt P35372); assay: Agonist activity at human MOR expressed in CHO-K1 cells co-expressing G-alpha15 by calcium mobilization assay relative to control; assay type: functional, cell-based; conditions: filed as agonist
[2] = target: T2, Kappa-type opioid receptor (Homo sapiens, UniProt P41145); assay: Agonist activity at human KOR expressed in CHO-K1 cells co-expressing G-alpha15 by calcium mobilization assay relative to control; assay type: functional, cell-based
T2 sequence (P41145 whole entry): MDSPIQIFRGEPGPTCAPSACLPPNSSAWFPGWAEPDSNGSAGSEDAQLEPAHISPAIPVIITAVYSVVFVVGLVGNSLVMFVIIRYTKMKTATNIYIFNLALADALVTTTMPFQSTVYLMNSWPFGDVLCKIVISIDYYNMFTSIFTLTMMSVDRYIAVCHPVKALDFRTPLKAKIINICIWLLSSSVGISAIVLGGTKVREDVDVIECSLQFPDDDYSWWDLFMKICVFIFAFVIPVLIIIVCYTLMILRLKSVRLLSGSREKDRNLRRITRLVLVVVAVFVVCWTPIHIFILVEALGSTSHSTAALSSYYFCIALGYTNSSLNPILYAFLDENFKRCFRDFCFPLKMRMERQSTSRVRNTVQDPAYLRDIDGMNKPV

[3] = target: T3, Delta-type opioid receptor (Homo sapiens, UniProt P41143); assay: Agonist activity at human DOR expressed in CHO-K1 cells co-expressing G-alpha15 by calcium mobilization assay relative to control; assay type: functional, cell-based; conditions: filed as agonist
T3 sequence (P41143 whole entry): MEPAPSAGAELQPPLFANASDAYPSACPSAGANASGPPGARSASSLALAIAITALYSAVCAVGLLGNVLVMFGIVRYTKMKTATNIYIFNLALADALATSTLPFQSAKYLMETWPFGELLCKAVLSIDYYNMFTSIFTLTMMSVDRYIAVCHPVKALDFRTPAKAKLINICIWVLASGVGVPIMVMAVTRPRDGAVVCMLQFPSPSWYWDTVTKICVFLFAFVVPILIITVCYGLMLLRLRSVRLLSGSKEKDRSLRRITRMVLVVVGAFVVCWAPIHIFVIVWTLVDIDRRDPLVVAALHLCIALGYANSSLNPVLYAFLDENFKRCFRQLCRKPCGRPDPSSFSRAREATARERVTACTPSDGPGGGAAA

[4] = target: T1, Mu-type opioid receptor; assay: Agonist activity at human MOR expressed in CHO-K1 cells co-expressing G-alpha15 by calcium mobilization assay; assay type: functional, cell-based
[5] = target: T2, Kappa-type opioid receptor; assay: Agonist activity at human KOR expressed in CHO-K1 cells co-expressing G-alpha15 by calcium mobilization assay; assay type: functional, cell-based
[6] = target: T3, Delta-type opioid receptor; assay: Agonist activity at human DOR expressed in CHO-K1 cells co-expressing G-alpha15 by calcium mobilization assay; assay type: functional, cell-based
[7] = tested on: Mus musculus; assay: Antinociceptive activity in Kunming mouse model assessed as latency of tail withdrawal at 1416 nmol/kg, sc measured for 10 mins by tail-flick test relative to control; assay type: functional
[8] = tested on: Mus musculus; assay: Antinociceptive activity in Kunming mouse model assessed as latency of tail withdrawal at 1416 nmol/kg, sc measured for 30 mins by tail-flick test relative to control; assay type: functional; conditions: 0.5 h
[9] = tested on: Mus musculus; assay: Antinociceptive activity in Kunming mouse model assessed as latency of tail withdrawal at 1416 nmol/kg, sc measured for 60 mins by tail-flick test relative to control; assay type: functional; conditions: 1 h
[10] = tested on: Mus musculus; assay: Antinociceptive activity in Kunming mouse model assessed as latency of tail withdrawal at 1416 nmol/kg, sc measured for 120 mins by tail-flick test relative to control; assay type: functional; conditions: 2 h
[11] = Stability in mouse plasma assessed as half life at 0.01 mol/L measured for 72 hrs by RP-HPLC analysis; assay type: ADME, cell-free
[12] = target: T2, Kappa-type opioid receptor; assay: Agonist activity at human KOR expressed in CHO-K1 cells co-expressing G-alpha15 upto 100 uM by calcium mobilization assay; assay type: functional, cell-based
[13] = tested on: Mus musculus; assay: Antinociceptive activity in Kunming mouse model assessed as latency of tail withdrawal at 138.8 nmol/kg, sc measured for 10 mins by tail-flick test relative to control; assay type: functional
[14] = tested on: Mus musculus; assay: Antinociceptive activity in Kunming mouse model assessed as latency of tail withdrawal at 138.8 nmol/kg, sc measured for 30 mins by tail-flick test relative to control; assay type: functional; conditions: 0.5 h
[15] = tested on: Mus musculus; assay: Antinociceptive activity in Kunming mouse model assessed as latency of tail withdrawal at 138.8 nmol/kg, sc measured for 60 mins by tail-flick test relative to control; assay type: functional; conditions: 1 h
[16] = tested on: Mus musculus; assay: Antinociceptive activity in Kunming mouse model assessed as latency of tail withdrawal at 138.8 nmol/kg, sc measured for 120 mins by tail-flick test relative to control; assay type: functional; conditions: 2 h

T1 sequence (P35372 whole entry): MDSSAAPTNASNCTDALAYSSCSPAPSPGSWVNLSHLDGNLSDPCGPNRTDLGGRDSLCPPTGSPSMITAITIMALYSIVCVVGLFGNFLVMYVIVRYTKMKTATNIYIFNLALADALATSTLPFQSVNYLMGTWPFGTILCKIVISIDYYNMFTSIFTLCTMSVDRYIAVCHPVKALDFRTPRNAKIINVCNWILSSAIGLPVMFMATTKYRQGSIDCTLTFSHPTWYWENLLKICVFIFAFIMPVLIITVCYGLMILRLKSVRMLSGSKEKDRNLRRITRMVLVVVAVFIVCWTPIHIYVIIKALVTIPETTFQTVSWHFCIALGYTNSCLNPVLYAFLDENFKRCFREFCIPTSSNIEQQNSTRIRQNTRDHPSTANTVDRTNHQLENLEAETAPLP

## Cc1ccc(C[C@@H]2NC(=O)CNC(=O)[C@H](NC(=O)[C@@H](N)Cc3ccc(O)cc3)CCCCNC(=O)C[C@H](C(=O)N3CCC[C@H]3C(N)=O)NC2=O)cc1
[1]
  Emax: 109%
[2]; filed as agonist
  Emax: 66.7%
[3]
  Emax: 115%

## Cc1ccc(C[C@@H]2NC(=O)CNC(=O)[C@H](NC(=O)[C@@H](N)Cc3ccc(O)cc3)CCCCNC(=O)C[C@@H](C(=O)N3CCC[C@@H]3C(N)=O)NC2=O)cc1 [listing 1 of 2 here]
[4]; cho-k1
  EC50: 29.1 nM
[5]; cho-k1
  EC50: 2430 nM
[6]; cho-k1
  EC50: 22.2 nM

## NC(=O)[C@H]1CCCN1C(=O)[C@@H]1CC(=O)NCCCC[C@@H](NC(=O)[C@@H](N)Cc2ccc(O)cc2)C(=O)NCC(=O)N(Cc2ccccc2)CC(=O)N1 [listing 1 of 2 here]
[7]
  MPE: 46.8%
[8]
  MPE: 91.4%
[9]
  MPE: 76.3%
[10]
  MPE: 7.7%

## NC(=O)[C@H]1CCCN1C(=O)[C@@H]1CC(=O)NCCCC[C@@H](NC(=O)[C@@H](N)Cc2ccc(O)cc2)C(=O)NCC(=O)N(Cc2ccccc2)CC(=O)N1 [listing 2 of 2 here]
[4]; cho-k1
  EC50: 36.1 nM
[6]; cho-k1
  EC50: 837 nM

## CN1CC(=O)N[C@@H](Cc2ccccc2)C(=O)N[C@@H](C(=O)N2CCC[C@H]2C(N)=O)CC(=O)NCCCC[C@@H](NC(=O)[C@@H](N)Cc2ccc(O)cc2)C1=O
[1]
  Emax: 118%
[3]
  Emax: 100%

## NC(=O)[C@H]1CCCN1C(=O)[C@@H]1CC(=O)NCCCC[C@@H](NC(=O)[C@@H](N)Cc2ccc(O)cc2)C(=O)NCC(=O)N[C@@H](CC2CCCCC2)C(=O)N1
[4]; cho-k1
  EC50: 43.2 nM
[6]; cho-k1
  EC50: 804 nM

## CC1(C)NC(=O)[C@H](NC(=O)[C@@H](N)Cc2ccc(O)cc2)CCCCNC(=O)C[C@@H](C(=O)N2CCC[C@@H]2C(N)=O)NC(=O)[C@H](Cc2ccccc2)NC1=O
[4]; cho-k1
  EC50: 5.3 nM
[5]; cho-k1
  EC50: 7250 nM
[6]; cho-k1
  EC50: 49.1 nM
[11]
  half-life at 0.01 mol/L: > 72 h

## NC(=O)[C@@H]1CCCN1C(=O)[C@H]1CC(=O)NCCCC[C@@H](NC(=O)[C@@H](N)Cc2ccc(O)cc2)C(=O)NCC(=O)N[C@@H](CCc2ccccc2)C(=O)N1
[12]
  Activity: inactive
[1]
  Emax: 99.8%
[3]
  Emax: 66.6%

## NC(=O)[C@H]1CCCN1C(=O)[C@@H]1CC(=O)NCCCC[C@@H](NC(=O)[C@@H](N)Cc2ccc(O)cc2)C(=O)NCCC(=O)N[C@@H](Cc2ccccc2)C(=O)N1 [listing 1 of 2 here]
[4]; cho-k1
  EC50: 974 nM

## C[C@@H]1NC(=O)[C@H](NC(=O)[C@@H](N)Cc2ccc(O)cc2)CCCCNC(=O)C[C@H](C(=O)N2CCC[C@H]2C(N)=O)NC(=O)[C@H](Cc2ccccc2)NC1=O
[4]; cho-k1
  EC50: 8.2 nM
[1]
  Emax: 93.7%
[5]; cho-k1
  EC50: 4820 nM
[2]; filed as agonist
  Emax: 51.4%
[6]; cho-k1
  EC50: 52 nM
[3]
  Emax: 96.6%
[13]
  MPE: 70.9%
[14]
  MPE: 88.9%
[15]
  MPE: 70.1%
[16]
  MPE: 27.4%

## CN1CC(=O)N[C@@H](Cc2ccccc2)C(=O)N[C@H](C(=O)N2CCC[C@@H]2C(N)=O)CC(=O)NCCCC[C@@H](NC(=O)[C@@H](N)Cc2ccc(O)cc2)C1=O
[4]; cho-k1
  EC50: 1150 nM
[6]; cho-k1
  EC50: 3030 nM

## NC(=O)[C@H]1CCCN1C(=O)[C@@H]1CC(=O)NCCCC[C@@H](NC(=O)[C@@H](N)Cc2ccc(O)cc2)C(=O)NCC(=O)N[C@@H](Cc2ccccc2)C(=O)N1 [listing 1 of 2 here]
[7]
  MPE: 65.5%
[8]
  MPE: 91.2%
[9]
  MPE: 63.7%
[10]
  MPE: 33.6%

## NC(=O)[C@@H]1CCCN1C(=O)[C@H]1CC(=O)NCCCC[C@@H](NC(=O)[C@@H](N)Cc2ccc(O)cc2)C(=O)NCC(=O)N[C@H](Cc2ccccc2)C(=O)N1
[4]
  EC50: 41.6 nM
[12]
  Activity: inactive
[1]
  Emax: 104%
[6]
  EC50: 965 nM
[3]
  Emax: 72.8%
[7]
  MPE: 61.8%
[8]
  MPE: 86.6%
[9]
  MPE: 55.5%
[10]
  MPE: 28.3%

## Cc1ccc(C[C@@H]2NC(=O)CNC(=O)[C@H](NC(=O)[C@@H](N)Cc3ccc(O)cc3)CCCCNC(=O)C[C@@H](C(=O)N3CCC[C@@H]3C(N)=O)NC2=O)cc1 [listing 2 of 2 here]
[13]
  MPE: 44.8%
[14]
  MPE: 95.6%
[15]
  MPE: 67.1%
[16]
  MPE: 39.2%

## NC(=O)[C@H]1CC(=O)NCCCC[C@@H](NC(=O)[C@@H](N)Cc2ccc(O)cc2)C(=O)NCC(=O)N[C@@H](Cc2ccccc2)C(=O)N1
[1]
  Emax: 103%
[2]; filed as agonist
  Emax: 85.5%
[3]
  Emax: 125%

## Cc1cc(O)cc(C)c1C[C@H](N)C(=O)N[C@@H]1CCCCNC(=O)C[C@H](C(=O)N2CCC[C@H]2C(N)=O)NC(=O)[C@H](Cc2ccccc2)NC(=O)CNC1=O
[1]
  Emax: 101%
[2]
  Emax: 39.2%
[3]
  Emax: 116%

## Cc1cc(O)cc(C)c1C[C@H](N)C(=O)N[C@@H]1CCCCNC(=O)C[C@@H](C(=O)N2CCC[C@@H]2C(N)=O)NC(=O)[C@H](Cc2ccccc2)NC(=O)CNC1=O
[4]; cho-k1
  EC50: 7.3 nM
[5]; cho-k1
  EC50: 3550 nM
[6]; cho-k1
  EC50: 1.2 nM

## NC(=O)[C@@H]1CCCN1C(=O)[C@H]1CC(=O)NCCCC[C@@H](NC(=O)[C@@H](N)Cc2ccc(O)cc2)C(=O)NCC(=O)N[C@@H](CC2CCCCC2)C(=O)N1
[1]
  Emax: 105%
[3]
  Emax: 54.4%

## NC(=O)[C@@H]1CC(=O)NCCCC[C@@H](NC(=O)[C@@H](N)Cc2ccc(O)cc2)C(=O)NCC(=O)N[C@@H](Cc2ccccc2)C(=O)N1
[4]; cho-k1
  EC50: 1.4 nM
[5]; cho-k1
  EC50: 1290 nM
[6]; cho-k1
  EC50: 12.5 nM

## NC(=O)[C@H]1CCCN1C(=O)[C@@H]1CC(=O)NCCCC[C@@H](NC(=O)[C@@H](N)Cc2ccc(O)cc2)C(=O)NCC(=O)N[C@@H](Cc2ccc3ccccc3c2)C(=O)N1
[4]; cho-k1
  EC50: 1.8 nM
[6]; cho-k1
  EC50: 2.2 nM
[11]
  half-life at 0.01 mol/L: 20.3 h

## NC(=O)[C@H]1CCCN1C(=O)[C@@H]1CC(=O)NCCCC[C@@H](NC(=O)[C@@H](N)Cc2ccc(O)cc2)C(=O)NCC(=O)N[C@@H](CCc2ccccc2)C(=O)N1
[4]; cho-k1
  EC50: 184 nM
[6]; cho-k1
  EC50: 64.4 nM

## NC(=O)[C@@H]1CCCN1C(=O)[C@H]1CC(=O)NCCCC[C@@H](NC(=O)[C@@H](N)Cc2ccc(O)cc2)C(=O)NCCC(=O)N[C@@H](Cc2ccccc2)C(=O)N1
[1]
  Emax: 95.9%

## NC(=O)CNC(=O)[C@H]1CC(=O)NCCCC[C@@H](NC(=O)[C@@H](N)Cc2ccc(O)cc2)C(=O)NCC(=O)N[C@@H](Cc2ccccc2)C(=O)N1
[1]
  Emax: 91.1%
[2]; filed as agonist
  Emax: 48.4%
[3]
  Emax: 104%

## NC(=O)[C@H]1CCCN1C(=O)[C@@H]1CC(=O)NCCCC[C@@H](NC(=O)[C@@H](N)Cc2ccc(O)cc2)C(=O)NCCC(=O)N[C@@H](Cc2ccccc2)C(=O)N1 [listing 2 of 2 here]
[13]
  MPE: 45.6%
[14]
  MPE: 92.6%
[15]
  MPE: 71%
[16]
  MPE: 40.6%

## NC(=O)[C@@H]1CCCN1C(=O)[C@H]1CC(=O)NCCCC[C@@H](NC(=O)[C@@H](N)Cc2ccc(O)cc2)C(=O)NCC(=O)N(Cc2ccccc2)CC(=O)N1
[12]
  Activity: inactive
[1]
  Emax: 113%
[3]
  Emax: 88.9%

## NC(=O)CNC(=O)[C@@H]1CC(=O)NCCCC[C@@H](NC(=O)[C@@H](N)Cc2ccc(O)cc2)C(=O)NCC(=O)N[C@@H](Cc2ccccc2)C(=O)N1
[4]; cho-k1
  EC50: 113 nM
[5]; cho-k1
  EC50: 9200 nM
[6]; cho-k1
  EC50: 623 nM

## NC(=O)[C@H]1CCCN1C(=O)[C@@H]1CC(=O)NCCCC[C@@H](NC(=O)[C@@H](N)Cc2ccc(O)cc2)C(=O)NCC(=O)N[C@@H](Cc2ccccc2)C(=O)N1 [listing 2 of 2 here]
[4]
  EC50: 31.1 nM
[5]
  EC50: 2830 nM
[6]
  EC50: 2.1 nM
[11]
  half-life at 0.01 mol/L: 41.9 h
